For two compounds, IC50 results are on record in article doi:10.1101/2020.12.17.423306v1 (biorxiv, 2020).

The structures appear in SMILES notation.

The term IC50 denotes the concentration needed to halve the response being measured. Read a high IC50 as a need for much substance.

One test deals with T1, HIS1 (Oryza sativa, UniProt A0A7G1K8F5).
T1 sequence (A0A7G1K8F5 1-351): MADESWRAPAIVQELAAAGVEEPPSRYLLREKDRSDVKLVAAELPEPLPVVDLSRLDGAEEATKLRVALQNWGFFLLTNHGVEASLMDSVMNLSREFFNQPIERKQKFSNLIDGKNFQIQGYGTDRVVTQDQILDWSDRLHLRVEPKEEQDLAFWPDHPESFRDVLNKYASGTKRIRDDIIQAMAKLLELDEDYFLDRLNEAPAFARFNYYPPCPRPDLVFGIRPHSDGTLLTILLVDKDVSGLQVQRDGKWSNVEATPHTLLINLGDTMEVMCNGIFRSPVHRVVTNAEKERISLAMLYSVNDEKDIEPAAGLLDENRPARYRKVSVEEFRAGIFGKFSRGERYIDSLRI
In words: HPLC of BBC-OH hydroxylation. The format is biochemical.

A further test has as its target T2, OsHSL1 (Oryza sativa, UniProt A0A7G1K9G4).
T2 sequence (A0A7G1K9G4 1-350): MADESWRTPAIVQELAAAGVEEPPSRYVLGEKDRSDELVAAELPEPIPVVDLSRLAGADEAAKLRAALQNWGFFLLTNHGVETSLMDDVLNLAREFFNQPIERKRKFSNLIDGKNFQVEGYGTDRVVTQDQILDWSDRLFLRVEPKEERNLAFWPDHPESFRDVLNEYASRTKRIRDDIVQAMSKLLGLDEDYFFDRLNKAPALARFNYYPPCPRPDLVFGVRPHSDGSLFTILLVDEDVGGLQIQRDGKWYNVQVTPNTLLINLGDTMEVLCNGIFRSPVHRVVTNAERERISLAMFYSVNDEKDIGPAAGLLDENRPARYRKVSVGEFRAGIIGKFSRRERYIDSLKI
In words: HPLC of TFT conversion. Format: biochemical.

As to `CCC(=O)C1C(=O)CC(C(=O)O)CC1=O` (centres unmarked) [prohexadione, 3,5-dioxo-4-propionylcyclohexanecarboxylic acid], the IC50 against HIS1 amounted to 50 µM.
On to `CCOC(=O)C1CC(=O)C(=C(O)C2CC2)C(=O)C1` (centres unmarked) [TE, ethyl-(3-oxido-4-cyclopropionyl-5-oxo) oxo-3-cyclohexenecarboxylate], for which, on OsHSL1, the concentration for half-maximal inhibition (IC50) is roughly 125 µM.
